One test has as its system BV2 cells. The experiment in a line: BV2 cell proliferation assay (CCK-8). The class given is cell-based. The following applies: Mus musculus, BV-2, 48 h treatment, CCK-8, top concentration 33.3 μM, mean pIC50 of multiple test results, read-out: BV2 Profileration pIC50 (converted). The source says: (§1) The assay measures the ability of a compound to inhibit cell proliferation using Cell Counting Kit-8 (CCK-8), which allows sensitive colorimetric assays for the determination of cell viability in cell proliferation and cytotoxicity assays. The highly water-soluble tetrazolium salt, WST-8, is reduced by dehydrogenase activities in cells to give a yellow-color formazan dye, which is soluble in the tissue culture media. The amount of the formazan dye, generated by the activities of dehydrogenases in cells, is directly proportional to the number of living cells.
(§2) The assay was performed based on the instruction of the manufacturer (Dojindo Molecular Technologies Inc., Rockville, MD, USA). To start the assay, BV2 cells were seeded at a density of […] into 96-well plates and treated with test compounds, which were used at a top final assay concentration of 33.3 μM, diluted in assay medium with 1:3 dilutions to produce 10 point concentration responses, for 48 h. After incubation, the CCK-8 solution (10 μl) was added to each well of the plate and the plates were incubated in incubator at 37° C. for 3 h. Absorbance was recorded three times independently using a microplate reader (Bio-Rad Laboratories, Richmond, CA, USA) at 450 nm.
Selected examples were tested in the BV2 cell proliferation. The data mentioned below represents a mean pIC50 value of multiple test results. It is understood that the data illustrated below may have reasonable variation depending on the specific conditions and procedures used by the person conducting the testing.

The target of the next test is MIF (Homo sapiens (Human), UniProt P14174). The experiment in a line: MIF tautomerase assay using pHPP as substrate. Format: biochemical. The note with it: cell-free, pHPP substrate 1.5 mM, MIF 3 nM; mean pIC50 of multiple test results. The procedure:
Tautomerase Assay Using pHPP as substrate
This assay measured MIF's tautomerase activity in a cell-free system and was based on the determination of initial rates of the MIF-catalyzed conversion of the ketonic into the enolic tautomer of pHPP. This was achieved by spectrophotometric quantification of the complex between borate and the product of the reaction (enolic pHPP). The substrate was prepared by conversion of the enolic pHPP into its ketonic form. To achieve this, 0.5 M pHPP in methanol was diluted 10-fold with 50 mM sodium acetate buffer at pH 6.0, and then the suspension was shaken for 24 h at room temperature in darkness, and finally stored at 4° C. for not more than 1 week, with 5 min sonication being recommended before use.
Assays were performed in small-volume clear-bottom black 96 or 384-well polystyrene plates (Greiner Bio-One). First, 2 μL of the enzyme solution containing 6 nM of MIF in DPBS, 0.025% w/v BSA, and 300 μM CHAPS was dispensed onto sample and negative control wells using Multidrop Combi with metallic tip cassettes (Thermo Fisher Scientific) previously treated with Sigmacote. Then, 2 μL of the same buffer without MIF was dispensed onto positive control wells. The reaction was started by addition of the following to all wells: 2 μL of substrate solution containing 3 mM ketonic pHPP in 200 mM boric acid, 25 mM sodium phosphate, 0.025% w/v BSA, and 300 μM CHAPS at pH 6.0. In order to remove bubbles, the plate was centrifuged in an Allegra 25R centrifuge (Beckman Coulter, Inc., Brea, CA) at 1000 rpm for 2 min at room temperature. Then, the plate was read in an EnVision. Final concentrations of enzyme and substrate were 3 nM and 1.5 mM, respectively. Initial rates were calculated for each well as the slope of the absorbance progress curve.
The data mentioned below represents a mean pIC50 value of multiple test results. It is understood that the data illustrated below may have reasonable variation depending on the specific conditions and procedures used by the person conducting the testing.

A further test has as its system U251 cell. As to the kind of experiment: U251 cell proliferation assay (CCK-8). The note with it: Homo sapiens, U-251; U251 cells; read-out: U251 Profileration pIC50 (converted). The class given is cell-based.
Source text: [The source words this procedure for another cell line and reports this cell line under the same test.] as §1, §2

MIF, sequence (P14174 2-115): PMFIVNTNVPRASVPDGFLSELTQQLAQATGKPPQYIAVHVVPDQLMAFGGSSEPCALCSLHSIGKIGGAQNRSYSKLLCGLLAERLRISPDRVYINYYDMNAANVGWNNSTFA

For the compound `COc1cc(N2CCNCC2)ccc1C(=O)NCc1nnc(-c2cccs2)o1` [Compound 58, 2-methoxy-4-(piperazin-1-yl)-N-((5-(thiophen-2-yl)-1,3,4-oxadiazol-2-yl)methyl)benzamide], the IC50 in the test on BV2 cells was 35.5 µM; in the test with U251 cell, greater than 1000 µM. Further, at MIF, the “Tautomerase Inhibition pIC50” value came to 5.95.
Taken in the same sequence, the figures for `COc1cc(N2CCN(C)CC2)ccc1C(=O)NCc1nnc(-c2cccs2)o1` [Compound 59, 2-methoxy-4-(4-methylpiperazin-1-yl)-N-((5-(thiophen-2-yl)-1,3,4-oxadiazol-2-yl)methyl)benzamide] were 40.7 µM, greater than 1000 µM and 5.90.
Regarding `COc1cc(N2CCOCC2)ccc1C(=O)NCc1nnc(-c2ccccc2)o1` [Compound 63, 2-methoxy-4-morpholino-N-((5-phenyl-1,3,4-oxadiazol-2-yl)methyl)benzamide], the IC50 in the test on BV2 cells was 21.4 µM; in the test on U251 cell it was greater than 1000 µM. Moreover, the “Tautomerase Inhibition pIC50” value on MIF is recorded as less than 5.
Taken in the same sequence, the figures for `O=C1c2ccccc2CCN1Cc1nnc(-c2cccs2)o1` [Compound 72, 2-((5-(thiophen-2-yl)-1,3,4-oxadiazol-2-yl)methyl)-3,4-dihydroisoquinolin-1(2H)-one] were 123 µM, greater than 1000 µM and less than 5.
On to `O=C1c2ccc(Br)cc2CCN1Cc1nnc(-c2cccs2)o1` [Compound 73, 6-bromo-2-((5-(thiophen-2-yl)-1,3,4-oxadiazol-2-yl)methyl)-3,4-dihydroisoquinolin-1(2H)-one], for which the figures for the IC50 in the test with BV2 cells and in the test with U251 cell were 23.4 µM and greater than 1000 µM, respectively. Also, at MIF, the “Tautomerase Inhibition pIC50” value is listed as less than 5.
Taken in the same sequence, the figures for `O=C1c2ccc(N3CCOCC3)cc2CCN1Cc1nnc(-c2cccs2)o1` [Compound 74, 6-morpholino-2-((5-(thiophen-2-yl)-1,3,4-oxadiazol-2-yl)methyl)-3,4-dihydroisoquinolin-1(2H)-one] were 25.1 µM, greater than 1000 µM and less than 5.
For `COc1cc(N2CCOCC2)ccc1NC(=O)c1nnc(-c2cccs2)o1` [Compound 75, N-(2-methoxy-4-morpholinophenyl)-5-(thiophen-2-yl)-1,3,4-oxadiazole-2-carboxamide], in that order: 28.2 µM, greater than 1000 µM and less than 5.
For `COc1cc(NC2CCN(C)C2)ccc1C(=O)NCc1nnc(-c2cccs2)o1` (stereo not drawn) [Compound 76, 2-methoxy-4-((1-methylpyrrolidin-3-yl)amino)-N-((5-(thiophen-2-yl)-1,3,4-oxadiazol-2-yl)methyl)benzamide], in that order: greater than 1000 µM, greater than 1000 µM and 1.77.
For `CNCCNc1ccc(C(=O)NCc2nnc(-c3cccs3)o2)c(OC)c1` [Compound 77, 2-methoxy-4-((2-(methylamino)ethyl)amino)-N-((5-(thiophen-2-yl)-1,3,4-oxadiazol-2-yl)methyl)benzamide], the IC50 in the test with BV2 cells and in the test with U251 cell was greater than 1000 µM throughout. Also, the “Tautomerase Inhibition pIC50” value on MIF was 5.66.
With `COc1cc(OC2CCN(C)C2)ccc1C(=O)NCc1nnc(-c2cccs2)o1` (stereo not drawn) [Compound 82, 2-methoxy-4-((1-methylpyrrolidin-3-yl)oxy)-N-((5-(thiophen-2-yl)-1,3,4-oxadiazol-2-yl)methyl)benzamide], the IC50 in the test on BV2 cells and in the test on U251 cell was greater than 1000 µM in each case. Moreover, the “Tautomerase Inhibition pIC50” value at MIF is given as 5.53.
Regarding `COc1cc(CC(C)(C)O)ccc1C(=O)NCc1nnc(-c2cccs2)o1` [Compound 84, 4-(2-hydroxy-2-methylpropyl)-2-methoxy-N-((5-(thiophen-2-yl)-1,3,4-oxadiazol-2-yl)methyl)benzamide], the IC50 is 41.7 µM in the test with BV2 cells and greater than 1000 µM in the test on U251 cell. For the same compound, the “Tautomerase Inhibition pIC50” value at MIF amounted to 6.04.
As for `COc1cc(CN2CCCCC2)ccc1C(=O)NCc1nnc(-c2cccs2)o1` [Compound 85, 2-methoxy-4-(piperidin-1-ylmethyl)-N-((5-(thiophen-2-yl)-1,3,4-oxadiazol-2-yl)methyl)benzamide], the IC50 in the test with BV2 cells and in the test on U251 cell was greater than 1000 µM in each case. On MIF, the “Tautomerase Inhibition pIC50” value was found to be 5.20.
On to `COc1cc(CN2CCOCC2)ccc1C(=O)NCc1nnc(-c2cccs2)o1` [Compound 86, 2-methoxy-4-(morpholinomethyl)-N-((5-(thiophen-2-yl)-1,3,4-oxadiazol-2-yl)methyl)benzamide], for which the IC50 in the test on BV2 cells and in the test with U251 cell was greater than 1000 µM each time. Also, the “Tautomerase Inhibition pIC50” value on MIF is 5.47.

Values taken from patent US11884682B2, “Compounds and their uses as MIF inhibitors” (NANJING IMMUNOPHAGE BIOTECH CO., LTD., priority 2020, dated 2024).
